Here are results for 7 compounds from patent US8029832B2, “Obesity and metabolic syndrome treatment with tanshinone derivatives which increase metabolic activity” (priority 2003, dated 2011).

The subject of one data set is AMPK. The experiment in a line: AMPK activity of double or triple combinations of tanshinone derivatives in muscle cells. In kind it is cell-based. Particulars: combinations of the four tanshinone derivatives. How it is done: Using muscle cells, this example was carried out to confirm synergistic effects of AMPK activity with respect to the combination ratio between derivatives, which contained tanshinone I, tanshinone IIA, cryptotanshinone and 15,16-dihydrotanshinone I, as main ingredients. That is, we have attempted to confirm inter-complementary functions between derivatives according to gene expression as shown in Example 5 and thereby synergistic effects by any combination of tanshinone derivatives through AMPK activity.
The respective ingredients of tanshinone I, tanshinone IIA, cryptotanshinone and 15,16-dihydrotanshinone I were doubly or triply combined to prepare different compositions. AMPK activity of the prepared compositions and the AMPK activity of respective ingredients included in those compositions were compared to confirm synergistic effects. In addition, we have attempted to confirm AMPK activity with respect to changes in the combination ratio by varying the ratio between ingredients in the compositions, and to obtain synergistic effects of activity by any combination of tanshinone derivatives.

A further data set has as its system hepatocytes. The following applies: Planta Med. 2002, 68, 1077-1081; cited from earlier work.
Data set [1] has as its system cardiac myocytes. Particulars: Biochemical Pharmacology 64, 745-750 (2002); cited from earlier work.
The next data set has as its system mitochondria. The following applies: Biochemical Pharmacology 65, 51-57, 2003; cited from earlier work.
In data set [2] the test system is cardiac myocytes. The following applies: Planta Med. 2002, 68, 1103-1107; cited from earlier work.
The next data set deals with cardiac fibroblasts. Particulars: Planta Med. 2002, 68, 1103-1107; cited from earlier work.

Turning to 15,16-Dihydrotanshinone I, the “enhancement effect on AMPK activity by combinational use of two or more of these compounds” value (“enhancement effect on AMPK activity” for short) in the data set with AMPK is recorded as “significantly increased”.
Consider `C[C@H]1COC2=C1C(=O)C(=O)c1c2ccc2c1CCCC2(C)C` [cryptotanshinone], for which the “enhancement effect on AMPK activity” value in the data set with AMPK is on record as “significantly increased”.
For `Cc1cccc2c3c(ccc12)C(=O)C1=C(OCC1C)C3=O` (stereo not drawn) [dihydroisotanshinone I], the “effect against menadione-induced cytotoxicity in hepatocytes” value in the data set with hepatocytes was “hepatoprotective effects”.
As for `Cc1c(S(=O)(=O)O)oc2c1C(=O)C(=O)c1c-2ccc2c1CCCC2(C)C` [tanshinone IIA sulfonate], the “hypertrophy of cardiac myocytes induced by angiotensin II” value with cardiac myocytes [1] is reported as “attenuates hypertrophy of cardiac myocytes induced by angiotensin II”. Further, in the data set on mitochondria, the “electron-transfer reaction in mitochondria” value is recorded as “facilitates an electron-transfer reaction in mitochondria”.
`Cc1coc2c1C(=O)C(=O)c1c-2ccc2c1CCCC2(C)C` [tanshinone IIA]: in the data set on AMPK, the “enhancement effect on AMPK activity” value is listed as “significantly increased”.
Regarding `Cc1cccc2c3c(ccc12)C(O)=C(C(C)CO)C(=O)C3=O` (stereo not drawn) [tanshinone VI], the “hypertrophy of cardiac myocytes” value with cardiac myocytes [2] is “attenuates hypertrophy of cardiac myocytes”. The “synthesis of collagen by cardiac fibroblasts” value with cardiac fibroblasts was “inhibits synthesis of collagen by cardiac fibroblasts”.
As to tanshinone I, the “enhancement effect on AMPK activity” value in the data set on AMPK was “significantly increased”.
